Measurements as given in PMC7932537, “Quantitative profiling of protease specificity” (PLoS Computational Biology, 2021).
Blank lines part the entries; values can stand above or below the substance they belong to.

Assays:
[1] = system: MMP-9; assay: Substrate phage display with NGS: relative probability (RP) of P3-P1' tetramer clusters; type: biochemical, human; conditions: for relative_probability: tetramer clusters unique to the MMP-9 selectome, MMP-9 RP
[2] = target: MMP-9 (Homo sapiens, UniProt P14780); assay: K(obs) of individual phage substrates (set of 1369); type: biochemical; conditions: MMP9
[3] = target: T1, MMP-2 (Homo sapiens, UniProt P08253); assay: as above; type: biochemical; conditions: MMP2
T1 sequence (P08253 110-660): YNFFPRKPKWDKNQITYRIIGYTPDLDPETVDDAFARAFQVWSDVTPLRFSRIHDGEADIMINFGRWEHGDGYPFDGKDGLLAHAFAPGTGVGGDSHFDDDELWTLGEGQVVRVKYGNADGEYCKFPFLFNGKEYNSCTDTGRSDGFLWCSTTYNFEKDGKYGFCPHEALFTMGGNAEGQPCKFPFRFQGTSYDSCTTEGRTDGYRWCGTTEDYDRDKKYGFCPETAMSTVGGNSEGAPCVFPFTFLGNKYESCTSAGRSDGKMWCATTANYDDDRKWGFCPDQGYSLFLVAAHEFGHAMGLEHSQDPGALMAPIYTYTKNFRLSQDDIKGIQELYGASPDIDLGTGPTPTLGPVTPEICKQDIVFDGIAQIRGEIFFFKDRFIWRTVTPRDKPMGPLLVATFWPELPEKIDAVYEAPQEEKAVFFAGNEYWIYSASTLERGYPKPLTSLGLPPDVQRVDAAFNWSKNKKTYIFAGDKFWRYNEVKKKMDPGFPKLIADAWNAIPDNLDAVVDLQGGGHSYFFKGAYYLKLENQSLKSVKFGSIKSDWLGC

[4] = system: MMP-2; assay: Substrate phage display with NGS: relative probability (RP) of P3-P1' tetramer clusters; type: biochemical, human; conditions: MMP2;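 note: ratio of tetramer probability after protease selection to that in naive phage library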
[5] = MMP9, RP of the P3-P1' tetramer matching the MS detected cleavage, RP above 4.7, substrate phage display with NGS
[6] = tetramer projected onto MMP-9 cleavage sites determined by Prudova et al. (2010)
[7] = RP according to MMP9, P3-P1' tetramer of unique physiologic MMP9 substrates from MEROPS
[8] = individual phage substrate of the set of 1369 peptides, dash in the sequence marks the cleavage position
[9] = individual phage substrate of the set of 1369 peptides, cleavage position marked by '-'
[10] = RP of the P3-P1' tetramer contained in the substrate
[11] = individual phage substrates, set of 1369 peptides, hyphen in sequence marks cleavage position
[12] = individual phage substrates, set of 1369 peptides, cleavage position marked by hyphen in sequence
[13] = RP of the P3-P1' tetramer contained in the substrate (substrate phage display with NGS)

Sequence of MMP-9 (Homo sapiens, UniProt P14780) (P14780 94-707): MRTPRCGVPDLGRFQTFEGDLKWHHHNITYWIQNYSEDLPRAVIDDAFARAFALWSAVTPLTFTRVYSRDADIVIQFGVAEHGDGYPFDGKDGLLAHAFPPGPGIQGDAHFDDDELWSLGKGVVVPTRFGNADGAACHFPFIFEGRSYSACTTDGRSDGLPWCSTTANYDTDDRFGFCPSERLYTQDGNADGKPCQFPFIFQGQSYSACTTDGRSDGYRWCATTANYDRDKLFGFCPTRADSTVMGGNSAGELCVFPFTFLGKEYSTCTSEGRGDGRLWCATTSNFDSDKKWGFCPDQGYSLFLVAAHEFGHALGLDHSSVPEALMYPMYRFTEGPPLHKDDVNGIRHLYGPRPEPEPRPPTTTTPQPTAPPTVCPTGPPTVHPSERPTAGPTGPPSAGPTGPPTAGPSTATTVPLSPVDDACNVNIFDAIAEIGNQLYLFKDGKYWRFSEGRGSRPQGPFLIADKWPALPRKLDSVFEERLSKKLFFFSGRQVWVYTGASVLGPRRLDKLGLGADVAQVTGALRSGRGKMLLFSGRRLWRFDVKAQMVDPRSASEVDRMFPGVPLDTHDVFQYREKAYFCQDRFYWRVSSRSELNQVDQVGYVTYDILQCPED

Substance: AAAY
relative probability (RP) ([1]; RP of the P3-P1' tetramer in MMP-9 substrate phage display/NGS, tetramer annotation of MMP-9 cleavage sites (octamers P4-P4') collected in MEROPS database): 22.04
Relative probability (RP) rank ([1]; rank of the P3-P1' tetramer by RP in MMP-9 substrate phage display/NGS, tetramer annotation of MMP-9 cleavage sites (octamers P4-P4') collected in MEROPS database): 2070

Substance: PWAQ [P3-P1' tetramer cluster]
relative_probability [1]: 41.83

Substance: TMNM
relative probability (RP) [1, 5]: 6.67

Substance: PSGI [P3-P1' tetramer cluster]
relative probability (RP) [1, 6]: 45.03

Substance: IYYI
relative probability (RP) [1, 5]: 14.54

Substance: PWMI [P3-P1' tetramer cluster]
relative_probability [1]: 41.91

Substance: PRLV
relative probability (RP) [1, 5]: 7.12

Substance: PDHL
relative probability (RP) [1, 5]: 13.06

Substance: TITG
Relative probability (RP) rank [1, 7]: 47886
relative probability (RP) [1, 7]: 0.16

Substance: PFSV [P3-P1' tetramer cluster]
relative probability (RP) [1, 6]: 31.92

Substance: PYAI [P3-P1' tetramer cluster]
relative probability (RP) ([1]; tetramer probability in MMP9 set / naive library, 200 nM protease, 2 h, 37°C): 51.7522

Substance: PKGE [P3-P1' tetramer cluster]
relative probability (RP) [1, 6]: 0

Substance: PVGV [P3-P1' tetramer cluster]
relative probability (RP) [1, 6]: 34.33

Substance: FFPF
relative probability (RP) ([1]; tetramer annotation of MMP-9 cleavage sites in physiologic substrates from MEROPS): 0.33

Substance: PWPH
relative probability (RP) [1, 5]: 15.08

Kobs [2, 8]: 3079.62 M⁻¹ s⁻¹
Kobs [3, 9]: 5889.62 M⁻¹ s⁻¹
Substance: VDIRM-LTASG
relative probability (RP) [4, 10]: 12.7446

Kobs [2, 8]: 12792.1 M⁻¹ s⁻¹
Kobs [3, 9]: 12792.1 M⁻¹ s⁻¹
Substance: RIPAS-LTASG
relative probability (RP) [4, 10]: 36.4285

Kobs [2, 8]: 2097.28 M⁻¹ s⁻¹
Kobs [3, 9]: 1154.21 M⁻¹ s⁻¹
Substance: SGPRF-IRLTA
relative probability (RP) [4, 10]: 22.3274

Kobs [2, 8]: 799.117 M⁻¹ s⁻¹
Kobs [3, 9]: 1373.05 M⁻¹ s⁻¹
Substance: GVYQG-LRTAS
relative probability (RP) [4, 10]: 4.332

Kobs [2, 11]: 12792.1 M⁻¹ s⁻¹
Kobs [3, 12]: 12792.1 M⁻¹ s⁻¹
Substance: RGPYH-LTASG
relative probability (RP) [4, 13]: 27.2418

Kobs [2, 8]: 2157.02 M⁻¹ s⁻¹
Kobs [3, 9]: 2837.92 M⁻¹ s⁻¹
Substance: STIRM-LTASG
relative probability (RP) [4, 10]: 12.7446

Kobs [2, 11]: 726.013 M⁻¹ s⁻¹
Kobs [3, 12]: 1154.21 M⁻¹ s⁻¹
Substance: EQAWY-LTASG
relative probability (RP) [4, 13]: 0.09636

Kobs [2, 11]: 0 M⁻¹ s⁻¹
Kobs [3, 12]: 5667.28 M⁻¹ s⁻¹
Substance: SGYAS-MVATA
relative probability (RP) [4, 13]: 24.1553

Kobs [2, 8]: 836.403 M⁻¹ s⁻¹
Kobs [3, 9]: 451.441 M⁻¹ s⁻¹
Substance: GRMLH-LRTAS
relative probability (RP) [4, 10]: 8.417

Kobs [2, 8]: 12792.1 M⁻¹ s⁻¹
Kobs [3, 9]: 12792.1 M⁻¹ s⁻¹
Substance: RIPRF-LTASG
relative probability (RP) [4, 10]: 28.4443

Kobs [2, 8]: 0 M⁻¹ s⁻¹
Kobs [3, 9]: 142.481 M⁻¹ s⁻¹
Substance: DNTFH-LTASG
relative probability (RP) [4, 10]: 0.1298

Kobs [2, 11]: 261.974 M⁻¹ s⁻¹
Kobs [3, 12]: 9740.44 M⁻¹ s⁻¹
Substance: RDLSH-LTASG
relative probability (RP) [4, 13]: 29.8814

Kobs [2, 8]: 4922.1 M⁻¹ s⁻¹
Kobs [3, 9]: 3850.82 M⁻¹ s⁻¹
Substance: GDPYG-MRTAS
relative probability (RP) [4, 10]: 27.2726

Kobs [2, 8]: 12792.1 M⁻¹ s⁻¹
Kobs [3, 9]: 1981.53 M⁻¹ s⁻¹
Substance: TFPFM-LTASG
relative probability (RP) [4, 10]: 19.624

Kobs [2, 8]: 0 M⁻¹ s⁻¹
Kobs [3, 9]: 0 M⁻¹ s⁻¹
Substance: KDYLH-LTASG
relative probability (RP) [4, 10]: 0.4077

Kobs [2, 11]: 12792.1 M⁻¹ s⁻¹
Kobs [3, 12]: 12792.1 M⁻¹ s⁻¹
Substance: SGPLG-ITLTA
relative probability (RP) [4, 13]: 33.936

Kobs [2, 11]: 142.481 M⁻¹ s⁻¹
Kobs [3, 12]: 12792.1 M⁻¹ s⁻¹
Substance: HAHAS-LTASG
relative probability (RP) [4, 13]: 26.2573

Kobs [2, 8]: 7815.03 M⁻¹ s⁻¹
Kobs [3, 9]: 9740.44 M⁻¹ s⁻¹
Substance: SGPLG-IRYTA
relative probability (RP) [4, 10]: 33.936

Kobs [2, 8]: 3536.02 M⁻¹ s⁻¹
Kobs [3, 9]: 1981.53 M⁻¹ s⁻¹
Substance: SGHRS-LRSTA
relative probability (RP) [4, 10]: 7.851

Kobs [2, 11]: 0 M⁻¹ s⁻¹
Kobs [3, 12]: 0 M⁻¹ s⁻¹
Substance: GISQS-LITAS
relative probability (RP) [4, 13]: 5.003

Kobs [2, 11]: 27.918 M⁻¹ s⁻¹
Kobs [3, 12]: 1112.44 M⁻¹ s⁻¹
Substance: GGVSF-LLTAS
relative probability (RP) [4, 13]: 5.918
